{
  "source": "patent US11912662B1",
  "about": "“2-alkoxy[4,3:6,2-terpyridine]-3-carbonitrile as antimicrobial compounds” (KING FAISAL UNIVERSITY, priority 2023, dated 2024)",
  "assay_type_in_all_cases": "cell-based",
  "key": {"[1]": {"system": "Escherichia coli", "assay": "Agar plate disc-diffusion antibacterial test, Escherichia coli", "conditions": "nutrient agar, 37° C., 48 h, DMSO control zone subtracted", "experimental": "(§1) The agar plate disc-diffusion method was applied. Sterilized filter papers (6 mm in diameter) were wetted with 10 μL of a solution of 2-ethoxy[4,3:6,2-terpyridine]-3-carbonitrile (4) or 2-methoxy[4,3:6,2-terpyridine]-3-carbonitrile (5) to be tested, containing […], and the discs were allowed to air dry. The discs were then placed onto the surface of agar plates (nutrient agar for bacteria and Sabouraud's dextrose agar for fungi) seeded with the test organism. Each plate contained 15 mL of the agar medium, previously seeded with 0.2 mL of the broth culture of each organism pre-grown for 18 hours. The plates were incubated at 37° C. for 48 h, and 72 h for fungi. The inhibition zones were measured in mm. Discs impregnated with DMSO were used as a control, and its inhibition zone was subtracted from the tested compound actual inhibition zone.\n(§2) The results of the antimicrobial testing can be observed in Tables 1 and 2, below, using ciprofloxacin as a reference."}, "[2]": {"system": "Aspergillus flavus", "assay": "Agar plate disc-diffusion antifungal test, Aspergillus flavus", "conditions": "Sabouraud's dextrose agar, 37° C., 72 h, DMSO control zone subtracted", "experimental": "as §1, §2"}, "[3]": {"system": "Staphylococcus aureus", "assay": "Agar plate disc-diffusion antibacterial test, Staphylococcus aureus", "conditions": "nutrient agar, 37° C., 48 h, DMSO control zone subtracted", "experimental": "as §1, §2"}, "[4]": {"system": "Chrysosporium keratinophilum", "assay": "Agar plate disc-diffusion antifungal test, Chrysosporium keratinophilum", "conditions": "Sabouraud's dextrose agar, 37° C., 72 h, DMSO control zone subtracted", "experimental": "as §1, §2"}, "[5]": {"system": "Pseudomonas aeruginosa", "assay": "Agar plate disc-diffusion antibacterial test, Pseudomonas aeruginosa", "conditions": "nutrient agar, 37° C., 48 h, DMSO control zone subtracted", "experimental": "as §1, §2"}, "[6]": {"system": "Bacillus cereus", "assay": "Agar plate disc-diffusion antibacterial test, Bacillus cereus", "conditions": "nutrient agar, 37° C., 48 h, DMSO control zone subtracted", "experimental": "as §1, §2"}, "[7]": {"conditions": "A = concentration of comp. = 10,000 μL"}, "[8]": {"conditions": "B = concentration of comp. = 30.000 μL"}, "[9]": {"conditions": "C = concentration of comp. = 50,000 μL"}},
  "data": [
    {"smiles": "O=C(O)c1cn(C2CC2)c2cc(N3CCNCC3)c(F)cc2c1=O", "note": "[Cip., ciprofloxacin, reference compound]", "values": [
      {"measurement": "inhibition zone", "setting": "[1]; [7]", "value": 30, "unit": "mm"},
      {"measurement": "inhibition zone", "setting": "[1]; [8]", "value": 39, "unit": "mm"},
      {"measurement": "inhibition zone", "setting": "[1]; [9]", "value": 60, "unit": "mm"},
      {"measurement": "inhibition zone", "setting": "[2]; [7]", "value": 29, "unit": "mm"},
      {"measurement": "inhibition zone", "setting": "[2]; [8]", "value": 30, "unit": "mm"},
      {"measurement": "inhibition zone", "setting": "[2]; [9]", "value": 42, "unit": "mm"},
      {"measurement": "inhibition zone", "setting": "[3]; [7]", "value": 43, "unit": "mm"},
      {"measurement": "inhibition zone", "setting": "[3]; [8]", "value": 44, "unit": "mm"},
      {"measurement": "inhibition zone", "setting": "[3]; [9]", "value": 53, "unit": "mm"},
      {"measurement": "inhibition zone", "setting": "[4]; [7]", "value": 29, "unit": "mm"},
      {"measurement": "inhibition zone", "setting": "[4]; [8]", "value": 30, "unit": "mm"},
      {"measurement": "inhibition zone", "setting": "[4]; [9]", "value": 53, "unit": "mm"},
      {"measurement": "inhibition zone", "setting": "[5]; [7]", "value": 29, "unit": "mm"},
      {"measurement": "inhibition zone", "setting": "[5]; [8]", "value": 30, "unit": "mm"},
      {"measurement": "inhibition zone", "setting": "[5]; [9]", "value": 53, "unit": "mm"},
      {"measurement": "inhibition zone", "setting": "[6]; [7]", "value": 29, "unit": "mm"},
      {"measurement": "inhibition zone", "setting": "[6]; [8]", "value": 30, "unit": "mm"},
      {"measurement": "inhibition zone", "setting": "[6]; [9]", "value": 42, "unit": "mm"}
    ]},
    {"smiles": "CCOc1nc(-c2ccccn2)cc(-c2cccnc2)c1C#N", "note": "[Compound 4, 2-ethoxy[4,3:6,2-terpyridine]-3-carbonitrile]", "values": [
      {"measurement": "inhibition zone", "setting": "[1]; [7]", "value": 28, "unit": "mm"},
      {"measurement": "inhibition zone", "setting": "[1]; [8]", "value": 37, "unit": "mm"},
      {"measurement": "inhibition zone", "setting": "[1]; [9]", "value": 51, "unit": "mm"},
      {"measurement": "inhibition zone", "setting": "[2]; [7]", "value": 20, "unit": "mm"},
      {"measurement": "inhibition zone", "setting": "[2]; [8]", "value": 23, "unit": "mm"},
      {"measurement": "inhibition zone", "setting": "[2]; [9]", "value": 35, "unit": "mm"},
      {"measurement": "inhibition zone", "setting": "[3]; [7]", "value": 16, "unit": "mm"},
      {"measurement": "inhibition zone", "setting": "[3]; [8]", "value": 20, "unit": "mm"},
      {"measurement": "inhibition zone", "setting": "[3]; [9]", "value": 28, "unit": "mm"},
      {"measurement": "inhibition zone", "setting": "[4]; [7]", "value": 22, "unit": "mm"},
      {"measurement": "inhibition zone", "setting": "[4]; [8]", "value": 24, "unit": "mm"},
      {"measurement": "inhibition zone", "setting": "[4]; [9]", "value": 35, "unit": "mm"},
      {"measurement": "inhibition zone", "setting": "[5]; [7]", "value": 24, "unit": "mm"},
      {"measurement": "inhibition zone", "setting": "[5]; [8]", "value": 29, "unit": "mm"},
      {"measurement": "inhibition zone", "setting": "[5]; [9]", "value": 46, "unit": "mm"},
      {"measurement": "inhibition zone", "setting": "[6]; [7]", "value": 25, "unit": "mm"},
      {"measurement": "inhibition zone", "setting": "[6]; [8]", "value": 27, "unit": "mm"},
      {"measurement": "inhibition zone", "setting": "[6]; [9]", "value": 40, "unit": "mm"}
    ]},
    {"smiles": "COc1nc(-c2ccccn2)cc(-c2cccnc2)c1C#N", "note": "[Compound 5, 2-methoxy[4,3:6,2-terpyridine]-3-carbonitrile]", "values": [
      {"measurement": "inhibition zone", "setting": "[1]; [7]", "value": 29, "unit": "mm"},
      {"measurement": "inhibition zone", "setting": "[1]; [8]", "value": 38, "unit": "mm"},
      {"measurement": "inhibition zone", "setting": "[1]; [9]", "value": 54, "unit": "mm"},
      {"measurement": "inhibition zone", "setting": "[2]; [7]", "value": 21, "unit": "mm"},
      {"measurement": "inhibition zone", "setting": "[2]; [8]", "value": 26, "unit": "mm"},
      {"measurement": "inhibition zone", "setting": "[2]; [9]", "value": 31, "unit": "mm"},
      {"measurement": "inhibition zone", "setting": "[3]; [7]", "value": 18, "unit": "mm"},
      {"measurement": "inhibition zone", "setting": "[3]; [8]", "value": 22, "unit": "mm"},
      {"measurement": "inhibition zone", "setting": "[3]; [9]", "value": 31, "unit": "mm"},
      {"measurement": "inhibition zone", "setting": "[4]; [7]", "value": 25, "unit": "mm"},
      {"measurement": "inhibition zone", "setting": "[4]; [8]", "value": 27, "unit": "mm"},
      {"measurement": "inhibition zone", "setting": "[4]; [9]", "value": 47, "unit": "mm"},
      {"measurement": "inhibition zone", "setting": "[5]; [7]", "value": 25, "unit": "mm"},
      {"measurement": "inhibition zone", "setting": "[5]; [8]", "value": 29, "unit": "mm"},
      {"measurement": "inhibition zone", "setting": "[5]; [9]", "value": 47, "unit": "mm"},
      {"measurement": "inhibition zone", "setting": "[6]; [7]", "value": 26, "unit": "mm"},
      {"measurement": "inhibition zone", "setting": "[6]; [8]", "value": 28, "unit": "mm"},
      {"measurement": "inhibition zone", "setting": "[6]; [9]", "value": 41, "unit": "mm"}
    ]}
  ]
}
